Assay results taken from publication PMC12005989, “Purification, identification, and in silico screening of a multifunctional octapeptide from semen armeniacae glutelin-2 hydrolysates: restraining mechanisms to Keap1 and ACE, stability, and ferrous-transport efficiency” (Frontiers in Nutrition, 2025).
Where two headings read alike, the source gives them in different places. Ends that are not written are not given here.

Key:
[1] = Hydroxyl radical quenching, β-deoxyribose oxidation method; settings: 100 μg/mL; mean ± SD, triplicate
Procedure: Next, the purification of BAG-2H is a two-step process: first, BAG-2H solution (1 g/L) was subjected to ultra-filtration on an ultra-membrane (filter aperture of 220 nm, Jingfei Membrane Equipment Factory, Luzhou, China). Next, the ultra-filtrate solution (2 mL) was chromatographically purified citing the modified procedures from Li et al. ([30]). Pre-balanced G-15 gel was loaded into a HS-MG-125 chromatographic column (Huasheng Chromatography Tech. Co., Ltd., Wuxi, China). After the BAG-2H ultra-filtrate solution has completely sunk into the column plane, the gel chromatographic column was sealed and eluted using dH2O with a constant velocity of 2.4 mL/min and monitor wavelength of 220 nm. An automatic collector (BT-160I, Thirdli Collection Equipment Co., Ltd., Guangzhou, China) was used to collect the elution, and the collection tube was changed every 5 min ([34]). After 400 min, the profiles of absorbance at 220 nm against elution time were drawn, and the separation fractions were freeze-dried using the EHI-220D lyophilizer. The ACE-inhibitory, ferrous-binding, and hydroxyl radical quenching abilities of the separation fractions were detected citing the hippuric acid ([50]), […]. During screening of the separation fractions, ACE-inhibitory and hydroxyl radical quenching abilities were the primary indexes, and the amino acid sequences of the selected fraction were analyzed.
The free radical quenching ability of samples, including superoxide, 2,2′-hydrazine-bis (3-ethylbenzothiazolin-6-sulfonic acid) diamine salt cation (ABTS^+), and hydroxyl radicals, was determined using the pyrogallol auto-oxidation, potassium persulfate, and β-deoxyribose oxidation methods, according to the same procedures from Tyagi et al. ([6]), Lin et al. ([2]), and Wang et al. ([35]), respectively. […]
Physicochemical properties and functionalities of BAG-2H peptides, including antihypertension and antioxidant activity, were in silico analyzed with the AHTpin^2 and Peptide Ranker server^3 databases ([39]), respectively. […]

[2] = Superoxide radical quenching, pyrogallol auto-oxidation method; settings: 100 μg/mL; mean ± SD, triplicate
Procedure: (§1) The free radical quenching ability of samples, including superoxide, 2,2′-hydrazine-bis (3-ethylbenzothiazolin-6-sulfonic acid) diamine salt cation (ABTS^+), and hydroxyl radicals, was determined using the pyrogallol auto-oxidation, potassium persulfate, and β-deoxyribose oxidation methods, according to the same procedures from Tyagi et al. ([6]), Lin et al. ([2]), and Wang et al. ([35]), respectively. Comparison was conducted when the samples were replaced by glutathione (0.1 mg/mL).
(§2) As described by Wu et al. ([41]), the simulative gastric digestive fluid consisted of sodium chloride (0.18 mol/L), ultrapure water (180 mL), and 0.40 mg/mL of pepsin. The simulation intestinal digestive juice was composed of NaHCO3 (0.625 g/mL), bile salt (3 g/100 mL), pancreatin (0.35 mg/mL), and 180 mL ultrapure water. In a glass triangle flask, 300 mg of the antihypertensive and antioxidant BAG-2H peptides, 60 mL of ultrapure water, and 150 mL of the simulative gastric fluid were mixed thoroughly. The flask was placed at 37°C in an EDZF-C002 thermostatic vibrator with shaking rate of 140 rpm. After 90 min, 180 mL of the simulative intestinal hydrolysis fluid was added and stirred at 37°C for 2 h. To stop the hydrolysis, the digestion solution in the flask was boiled for 6 min and then cooled by running water to room temperature. The ACE inhibition capacity and antioxidant ability of the treated BAG-2H peptides were detected and compared to those of the undigested BAG-2H peptides.

[3] = ABTS+ radical quenching, potassium persulfate method; settings: 100 μg/mL; mean ± SD, triplicate
Procedure: as §1
as §2, with “To stop the hydrolysis, the digestion solution in the flask was boiled for 6 min and then cooled by running water to room temperature.” left out

[4] = Ferric reducing ability, Prussian blue method; settings: 100 μg/mL, pH 6.8 phosphate buffer; determined at 700 nm; mean ± SD, triplicate
Procedure: Ferric reducing ability was defined as the ability of antioxidants to provide protons, which was administrated according to the Prussian blue method ([2]). A total 1 mL of BAG-2H peptide solution (100 μg/mL, dissolved in 0.2 mol/L of phosphate buffer, pH 6.8) was reacted with potassium ferricyanide (10 mg/mL, 4 mL) in the EDZF-C002 thermostatic vibrator (50°C, 220 rpm) for 30 min. The reaction solution was cooled to 25 ± 1°C and precipitated using an equal volume of 100 mg/mL trichloroacetic acid for 10 min. Then, the reaction solution was centrifuged at 3000 × g for 25 min, and 1 mL of the upper solution was pipetted and reacted with 1 mg/mL of FeCl3 (1.2 mL) to produce Prussian blue (potassium ferrocyanide). The concentration of potassium ferrocyanide produced was positively correlated with the ferric reducing ability of the sample ([37]), which was determined at 700 nm using a HD-UV90 ultraviolet–visible spectrophotometer (Holder Technology Co. LTD, Weifang, China).
As described by Wu et al. ([41]), the simulative gastric digestive fluid consisted of sodium chloride (0.18 mol/L), ultrapure water (180 mL), and 0.40 mg/mL of pepsin. […] The ACE inhibition capacity and antioxidant ability of the treated BAG-2H peptides were detected and compared to those of the undigested BAG-2H peptides.

[5] = Ferrous solubility of ferrous chelate during simulated gastrointestinal digestion; assay type: in vitro ADME; settings: soluble ferrous by o-phenanthroline every 30 min
Procedure: Next, the intestinal digestive fluid was added, and the digestion was continued at pH 6.8 for 2 h in the EDZF-C002 thermostatic vibrator ([…], 175 rpm).

[6] = cited from earlier work
Text: The Asp., Val, Tyr, Phe, and Gly in […] can effectively bind to ferrous ions ([16], [20]). The γ-carboxyl group in Asp and phenolic hydroxyl groups in Tyr and Phe can form ionic bond with ferrous ions ([17]). Ascribed to the excellent metal ion-chelating capacity, Gly is an ideal ingredient for iron or calcium supplement ([45]). In addition, the carbo ...

ACE = test system: ACE; design: method as in 2 sources, ref 34 = [34]; doi:10.1016/j.fbio.2023.103419; 34. Zheng Y Ma J Guo Y Zhuang Y Yang Z Zhu Z . In silico screening and characterization, inhibition mechanism on ACE, and stability of antihypertensive peptides with Zn-chelating capacity identified f ||| ref 45 = [45]; PMID 38470110; doi:10.1021/acs.jafc.4c00829; 45. Martineau-Côté D Achouri A Karboune S L’Hocine L . Antioxidant and angiotensin-converting enzyme inhibitory activity of Faba bean-derived peptides after in vitro gastrointestinal digestion: insigh; settings: read-out: ACE-inhibitory IC50, cited from earlier work
[7] = Gastrointestinal stability of peptide (simulated gastric and intestinal digestion); assay type: in vitro ADME; settings: simulated gastric fluid (pepsin 0.40 mg/mL) 90 min, then intestinal fluid (pancreatin, bile salt) 2 h, 37°C; read-out retained activity; p > 0.05
Procedure: as §2

Compound: N[C@@H](CCC(=O)N[C@@H](CS)C(=O)NCC(=O)O)C(=O)O [Glutathione, glutathione, reference compound]
- ·OH scavenging activity, before gastrointestinal [1]: 95.56% ± 1.38%a
- Superoxide radical scavenging ability, before gastrointestinal [2]: 90.52% ± 4.97%a
- ABTS+ scavenging activity, before gastrointestinal [3]: 79.25 ± 1.67%a
- Ferric reducing ability, before gastrointestinal [4]: 0.675 ± 0.019a

Compound: [Cl][Fe][Cl] [ferrous chloride]
- Ferrous solubility during gastric digestion (0–90 min) ([5]; simulated gastric fluid with pepsin, pH 1.9, 37°C, 175 rpm): relatively stable
- Ferrous solubility during intestinal digestion (91–180 min) ([5]; simulated intestinal fluid, pH 6.8, 37°C): apparently decreased

Compound: FEDPEFE [scallop skirts peptide]
- Ferrous chelating ability ([6]; scallop skirts peptide): 9.39 mg/g

Compound: GCHHY
- IC50 (ACE; peptide from millet bran glutelin-2): 147 µM

Compound: PVDFAGFY
- Stability of antioxidant activity and ACE-inhibitory capacity during gastrointestinal digestion [7]: stable during gastrointestinal digestion

Compound: SELE [millet bran globulin peptide]
- Ferrous chelating ability ([6]; millet bran globulin peptide): 7.93 mg/g

Compound: VIPTEPPHA
- IC50 (ACE; peptide from Faba beans): 260 µM
